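Interpolation was linear, between the two tested concentrations surrounding the appropriate level; five concentrations were tested over 48 hours in 96-well plates. GI50 = concentration required for 50% inhibition of growth.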 Calls of active or inactive are those of the source. Rule as the data show it: active = GI50 up to about 1.1 µM and inactive = higher.
Key:
Test in all cases: inhibition of tumour cell growth, NCI panel, 48 h
DLD-1 = test system: DLD-1
SNB-78 = test system: SNB-78
LXFL 529 = test system: LXFL 529
CAKI-1 = test system: CAKI-1
SK-OV-3 = test system: SK-OV-3
XF498 = test system: XF498
NCI-H23 = test system: NCI-H23
LOX IMVI = test system: LOX IMVI
Malme-3M = test system: Malme-3M
SF-295 = test system: SF-295
UACC-62 = test system: UACC-62
MOLT-4 = test system: MOLT-4
U-251 = test system: U-251
SK-MEL-5 = test system: SK-MEL-5
CCRF-CEM = test system: CCRF-CEM
DMS-114 = test system: DMS-114
DMS-273 = test system: DMS-273
HT-29 = test system: HT-29
HCC 2998 = test system: HCC 2998
OVCAR-5 = test system: OVCAR-5
SK-MEL-2 = test system: SK-MEL-2
RXF 631 = test system: RXF 631
SW-620 = test system: SW-620
UO-31 = test system: UO-31
HOP-18 = test system: HOP-18
M14 = test system: M14
NCI-H522 = test system: NCI-H522
SF-268 = test system: SF-268
A549 = test system: A549
SK-MEL-28 = test system: SK-MEL-28
RPMI-8226 = test system: RPMI-8226
SN12C = test system: SN12C
SR = test system: SR
KM12 = test system: KM12
NCI-H226 = test system: NCI-H226
SF-539 = test system: SF-539
M19-MEL = test system: M19-MEL
NCI-H460 = test system: NCI-H460
OVCAR-4 = test system: OVCAR-4
UACC-257 = test system: UACC-257
IGROV-1 = test system: IGROV-1
EKVX = test system: EKVX
SNB-75 = test system: SNB-75
OVCAR-8 = test system: OVCAR-8
OVCAR-3 = test system: OVCAR-3
786-0 = test system: 786-0
SNB-19 = test system: SNB-19
HOP-92 = test system: HOP-92
TK-10 = test system: TK-10
HOP-62 = test system: HOP-62
K562 = test system: K562
COLO 205 = test system: COLO 205
ACHN = test system: ACHN
A498 = test system: A498
HCT-116 = test system: HCT-116
HCT-15 = test system: HCT-15
KM-20L2 = test system: KM-20L2
RXF 393 = test system: RXF 393
HL-60 = test system: HL-60

Measured: GI50

Cc1cc(C)nc(Sc2c([N+](=O)[O-])ncn2C)n1
inactive: DLD-1 > 100 µM | SNB-78 > 100 µM | LXFL 529 99.8 µM | CAKI-1 > 100 µM | SK-OV-3 > 100 µM | XF498 > 100 µM | NCI-H23 > 100 µM | LOX IMVI 57.1 µM | Malme-3M 94.6 µM | SF-295 > 100 µM | UACC-62 > 100 µM | MOLT-4 69.5 µM | U-251 > 100 µM | SK-MEL-5 > 100 µM | CCRF-CEM 56.9 µM | DMS-114 > 100 µM | DMS-273 > 100 µM | HT-29 > 100 µM | HCC 2998 > 100 µM | OVCAR-5 > 100 µM | SK-MEL-2 > 100 µM | RXF 631 > 100 µM | SW-620 > 100 µM | UO-31 > 100 µM | HOP-18 20.6 µM | M14 > 100 µM | NCI-H522 > 100 µM | SF-268 > 100 µM | A549 > 100 µM | SK-MEL-28 > 100 µM | RPMI-8226 > 100 µM | SN12C > 100 µM | SR > 100 µM | KM12 > 100 µM | NCI-H226 > 100 µM | SF-539 > 100 µM | M19-MEL > 100 µM | NCI-H460 > 100 µM | OVCAR-4 > 100 µM | UACC-257 > 100 µM | IGROV-1 > 100 µM | EKVX > 100 µM | SNB-75 > 100 µM | OVCAR-8 > 100 µM | OVCAR-3 > 100 µM | 786-0 > 100 µM | SNB-19 > 100 µM | HOP-92 > 100 µM | TK-10 > 100 µM | HOP-62 > 100 µM | K562 > 100 µM | COLO 205 > 100 µM | ACHN > 100 µM | A498 > 100 µM | HCT-116 > 100 µM

[O-][S+]1c2ccccc2N=C(c2ccc3ccccc3c2)CC1c1ccccc1F (stereo not drawn)
inactive: DLD-1 > 100 µM | LXFL 529 > 100 µM | CAKI-1 > 100 µM | SK-OV-3 > 100 µM | XF498 > 100 µM | NCI-H23 > 100 µM | LOX IMVI > 100 µM | Malme-3M > 100 µM | SF-295 > 100 µM | UACC-62 > 100 µM | MOLT-4 48.2 µM | U-251 > 100 µM | SK-MEL-5 > 100 µM | CCRF-CEM 67.8 µM | DMS-114 > 100 µM | DMS-273 > 100 µM | HT-29 > 100 µM | HCC 2998 > 100 µM | OVCAR-5 > 100 µM | SK-MEL-2 > 100 µM | RXF 631 > 100 µM | SW-620 > 100 µM | UO-31 > 100 µM | HOP-18 > 100 µM | M14 > 100 µM | NCI-H522 72.3 µM | SF-268 > 100 µM | A549 > 100 µM | SK-MEL-28 > 100 µM | RPMI-8226 58.6 µM | SN12C > 100 µM | KM12 > 100 µM | KM-20L2 > 100 µM | NCI-H226 82.2 µM | SF-539 > 100 µM | RXF 393 > 100 µM | M19-MEL > 100 µM | NCI-H460 > 100 µM | OVCAR-4 > 100 µM | UACC-257 > 100 µM | IGROV-1 > 100 µM | EKVX > 100 µM | SNB-75 20.5 µM | OVCAR-8 > 100 µM | OVCAR-3 > 100 µM | 786-0 > 100 µM | SNB-19 > 100 µM | HL-60 > 100 µM | TK-10 > 100 µM | HOP-62 > 100 µM | K562 78.2 µM | COLO 205 > 100 µM | ACHN > 100 µM | A498 22.3 µM
> 100 µM: HCT-15

COc1cc(C2(C)SCCCS2)c(I)c(OC)c1OC
inactive: DLD-1 > 100 µM | SNB-78 > 100 µM | LXFL 529 > 100 µM | CAKI-1 > 100 µM | SK-OV-3 > 100 µM | XF498 > 100 µM | NCI-H23 > 100 µM | LOX IMVI > 100 µM | Malme-3M > 100 µM | SF-295 > 100 µM | UACC-62 > 100 µM | MOLT-4 > 100 µM | U-251 > 100 µM | SK-MEL-5 > 100 µM | CCRF-CEM > 100 µM | DMS-114 > 100 µM | DMS-273 > 100 µM | HT-29 > 100 µM | HCC 2998 > 100 µM | OVCAR-5 > 100 µM | SK-MEL-2 > 100 µM | RXF 631 > 100 µM | SW-620 > 100 µM | UO-31 > 100 µM | HOP-18 > 100 µM | M14 > 100 µM | NCI-H522 > 100 µM | SF-268 > 100 µM | A549 > 100 µM | SK-MEL-28 > 100 µM | RPMI-8226 > 100 µM | SN12C > 100 µM | SR > 100 µM | KM12 > 100 µM | KM-20L2 > 100 µM | NCI-H226 > 100 µM | SF-539 > 100 µM | M19-MEL > 100 µM | NCI-H460 > 100 µM | OVCAR-4 > 100 µM | UACC-257 > 100 µM | IGROV-1 > 100 µM | EKVX > 100 µM | SNB-75 > 100 µM | OVCAR-8 > 100 µM | OVCAR-3 > 100 µM | 786-0 > 100 µM | SNB-19 > 100 µM | HL-60 > 100 µM | HOP-92 > 100 µM | TK-10 > 100 µM | HOP-62 > 100 µM | K562 87.5 µM | COLO 205 > 100 µM | ACHN > 100 µM | A498 > 100 µM | HCT-116 > 100 µM
> 100 µM: HCT-15
